Measurements: ChEMBL document CHEMBL3507680, “University of Dundee, Gates Library screen for HepG2 cell viability”

Assay: Human HepG2 cell viability assay in 384 well format
Format: toxicity, cell-based
Design: dose 125 nL, time 70.5 hour; cytotoxicity at 70.5 h: concentration not given beside the values
Conditions: HepG2 cells, read-out: Inhibition

Row | Structure (SMILES) | cytotoxicity at 70.5 h
1 | Cn1cc(C2CC(=O)NC23CCN(C(=O)C2CC=CC2)CC3)cn1 (stereo not given) | 18.7%
2 | C1CC(CN2C[C@@H]3C[C@@H](c4nnc(C5CC5)o4)O[C@@H]3C2)C1 | 27.7%
3 | CCC(=O)N1CCC2(CC1)CC(NC(=O)N(C)C)c1cc(C)ccc12 (stereo not given) | -5.76%
4 | O=C(c1cccc(F)c1)N1CCc2ncc(Cn3cccn3)n2CC1 | -11%
5 | O=C(NCCN1CCCC1)c1cc2c(s1)CCN2C(=O)c1ccccc1 | -8.31%
6 | O=C(NCC1CC1)c1cc2c(s1)CCN2C(=O)c1ccc(F)cc1 | -9.03%
7 | CCO[C@@H]1CC[C@H]2[C@H]1OCCN2S(=O)(=O)C1CC1 | -11.4%
8 | CN1CCN(C(=O)c2cccn2C)Cc2cccnc21 | -4.65%
9 | O=C(NCC1CC1)[C@@H]1C[C@@H]2CCN(Cc3ccccc3)C[C@H]2O1 | -6.35%
10 | COCCN1Cc2ccccc2C2(CCN(C(=O)c3ccno3)CC2)C1 | 2.49%
11 | O=C([C@H]1CCCO1)N1CCN(Cc2cccnc2)c2ncccc2C1 | 0.581%
12 | Cc1ccc(N2CCCc3sc(C(=O)NCC4CCCO4)nc32)nn1 (stereo not given) | -8.45%
13 | Cc1ccc2c(n1)N(Cc1cccnc1)CCN(C(=O)C1CC=CC1)C2 | -9.79%
14 | CNC(=O)[C@H]1C[C@@H]2CN(C(=O)c3ccsc3)C[C@@H]2N1S(C)(=O)=O | -10.8%
15 | CN(Cc1cccnc1)[C@@H]1CN(c2ncc(F)cn2)[C@@H]2CCCO[C@H]12 | -11.8%
16 | O=C(NCC1CCCO1)c1nc2c(s1)CCCN2C(=O)C1CC1 (stereo not given) | -9.75%
17 | O=C(NCC1CCCO1)c1nc2c(s1)CCCN2CC1CC1 (stereo not given) | -2.36%
18 | COCC(=O)N1CCn2c(Cn3cncn3)cnc2C1C (stereo not given) | -6.96%
19 | N#Cc1ccc(OC[C@]23COC[C@H]2CN(c2ncccn2)C3)nc1 | -7.98%
20 | COCCNC(=O)C1CN(C(N)=O)Cc2ccnn2C1 (stereo not given) | -8.89%
21 | c1ccc(COC[C@]23COC[C@H]2CN(c2ncccn2)C3)nc1 | -11.9%
22 | CS(=O)(=O)N[C@@H]1COC[C@@H]2CN(Cc3ccco3)C[C@@H]21 | -16.3%
23 | CS(=O)(=O)N1CC[C@]2(C[C@@H](OCC3CCC3)CO2)C1 | -12.4%
24 | Cn1cc(-c2ncnc3c2CCN(C(=O)N2CCOCC2)CC3)cn1 | -5.18%
25 | O=C(c1ccc(Cl)cc1)N1CCCn2nnc(Cn3cccn3)c2C1 | 1.05%

Row | Structure (SMILES) | cytotoxicity at 70.5 h
26 | Cc1nccc([C@H]2C[C@@H]3CCN(S(=O)(=O)N(C)C)C[C@H]3O2)n1 | -10.6%
27 | O=C(N1CCOCC1)N1CCc2ncnc(NC3CC3)c2CC1 | 21%
28 | O=C(NCc1ccccc1)N1CCC2(CC(=O)N(c3ccsc3)C2)C1 (stereo not given) | -2.89%
29 | COCC1CC2(CCN(C(=O)c3cccn3C)CC2)CN1C(C)C (stereo not given) | -0.557%
30 | Cc1cccc(COC[C@]23COC[C@H]2CN(C(=O)c2ccsc2)C3)n1 | 2.91%
31 | CC(=O)N1CC(=O)N(c2cnn(C)c2)CC12CCN(Cc1ccoc1)C2 (stereo not given) | 1.31%
32 | Cc1ccc2nc(C3CCN(CCO)CC3)nn2c1 | 21.1%
33 | Cn1cc(C2CC(=O)NC23CCN(c2ncc(F)cn2)CC3)cn1 (stereo not given) | 25.2%
34 | Cc1cccc(C(=O)N2C[C@@H]3OCCN(C(C)C)[C@@H]3C2)n1 | -0.427%
35 | CNC(=O)[C@H]1C[C@@H]2CN(C(=O)c3ccco3)C[C@@H]2N1S(C)(=O)=O | -7.68%
36 | Cc1ncnc2c1CCN(c1cc(C(F)(F)F)ncn1)CC2 | -17.8%
37 | CS(=O)(=O)N1CC[C@H]2C[C@@H](C(=O)N3CCOCC3)O[C@@H]2C1 | 2.65%
38 | O=C(NCc1ccco1)[C@H]1C[C@H]2OCC[C@H]2N(S(=O)(=O)C2CC2)C1 | -12.2%
39 | CCc1cnc(N2C[C@H]3C[C@H](C(=O)N(C)C)[C@@H](C2)O3)nc1 | -7.47%
40 | CCNC(=O)N1CCC2(C1)c1ccccc1S(=O)(=O)N2CCC(C)C (stereo not given) | -12.9%
41 | CN(C)C(=O)[C@H]1C[C@@H]2CCN(C3CCOCC3)C[C@H]2O1 | -8.09%
42 | CN(Cc1ccco1)Cc1cncc2c1CCN(S(C)(=O)=O)C2 | -8.46%
43 | CC(C)CN1CCc2c(CN(C)Cc3ccco3)cncc2C1 | 4.58%
44 | CN1CC(=O)N(c2ccccc2)CC12CCN(C(=O)c1ccnnc1)C2 (stereo not given) | 24.2%
45 | Cc1ccc2c(c1)C(NC(=O)N(C)C)CC21CCN(C)CC1 (stereo not given) | -3.53%
46 | Cc1ccc2c(c1)C(NC(=O)N(C)C)CC21CCN(CC2CC2)CC1 (stereo not given) | -9.46%
47 | O=C(NCC1CCOCC1)[C@H]1C[C@@H]2CCN(Cc3ccccc3)C[C@H]2O1 | -7.17%
48 | Cn1cc(C2CC(=O)NC23CCN(Cc2cccc(F)c2)CC3)cn1 (stereo not given) | -0.799%
49 | O=C(c1ccccn1)N1CCc2ncc(Cn3cccn3)n2CC1 | -7.08%
50 | CC(=O)N1CCO[C@H]2[C@H](OCCCn3cccn3)CC[C@@H]21 | -3.12%

Row | Structure (SMILES) | cytotoxicity at 70.5 h
51 | CNC(=O)[C@@H]1C[C@H]2CN(C(=O)c3ccco3)C[C@H]2N1C(C)C | -10.2%
52 | CNC(=O)[C@H]1C[C@@H]2CN(C(=O)c3cccnc3)C[C@@H]2N1S(C)(=O)=O | -11.1%
53 | CNC(=O)[C@H]1C[C@@H]2CN(C(=O)c3ccccn3)C[C@@H]2N1S(C)(=O)=O | -7.73%
54 | O=C(N1CCCO1)[C@@]12CCO[C@@H]1CCN(Cc1ccc(F)cc1)C2 | -1.1%
55 | CC1c2ncc(CNC(=O)C3CC3)n2CCN1Cc1ccsc1 (stereo not given) | -1.59%
56 | Cc1ccc(CN2C[C@@H]3COC[C@H](NS(C)(=O)=O)[C@@H]3C2)s1 | -10.6%
57 | O=C(c1n[nH]c2c1CCN(Cc1nccs1)C2)N1CCCC1 | -7.39%
58 | CC(=O)N1CC(=O)N(c2cnn(C)c2)CC12CCN(CC1CC1)C2 (stereo not given) | 1.31%
59 | COCCN1C[C@H]2CC[C@@]3(N=C(C)N(CC4CC4)C3=O)[C@H]2C1 | -2.1%
60 | CC(C)CNC(=O)[C@H]1CCS(=O)(=O)[C@@H]2CN(Cc3ccc(Cl)cc3)C[C@H]12 | 3.8%
61 | COCC1CC2(CCN(C(=O)c3cc(C)oc3C)CC2)CN1C(C)C (stereo not given) | 0.799%
62 | COCC1Cn2nnc(-c3cnn(C)c3)c2CN1Cc1ccco1 (stereo not given) | 5.04%
63 | O=C(NC1CCC1)[C@@H]1CCO[C@@H]2CCN(CCc3ccccc3)C[C@H]21 | -3.26%
64 | Cc1cccc(NC(=O)N2CCCn3cnc(CN4CCCC4)c3C2)c1 | -1.43%
65 | c1cnc(NC[C@@H]2CCC[C@@H]3CN(Cc4cc[nH]n4)C[C@@H]32)nc1 | -5.11%
66 | Cc1cnc2n1CCN(C)C21CCN(C(=O)CC(C)C)CC1 | 3.32%
67 | CCN1CCC2(CC1)CC(NC(=O)NC)c1cc(C)ccc12 (stereo not given) | -6.74%
68 | COCC(=O)N1CCC[C@]2(C(=O)N(C)C)CN(c3ccccn3)C[C@@H]2C1 | -5.67%
69 | CCS(=O)(=O)N1CCC[C@]2(C(=O)N(C)C)CN(c3ccccn3)C[C@@H]2C1 | -0.152%
70 | CN(Cc1ccccc1)C1COC2(CCN(Cc3nccs3)CC2)C1 (stereo not given) | 10%
71 | CO[C@H]1CCN(S(=O)(=O)c2cn(C)cn2)[C@H]1Cc1cnn(C)c1 | -14.3%
72 | O=C([C@H]1C[C@@H]2CCN(C3CCOCC3)C[C@@H]2O1)N1CCOCC1 | -5.58%
73 | CN1CCN(C(=O)[C@H]2C[C@@H]3CCN(c4ncc(F)cn4)C[C@@H]3O2)CC1 | -13.1%
74 | COCCN1C[C@@H](C)[C@@]2(COCCN(C(=O)Cc3ccccc3)C2)C1 | -23%
75 | c1cc(CN2CCO[C@H]3[C@H](OCCN4CCCC4)CC[C@@H]32)co1 | -14.8%

Row | Structure (SMILES) | cytotoxicity at 70.5 h
76 | CC(C)N1CC[C@@H]2OC[C@H](C(=O)Nc3cccnc3)C[C@@H]2C1 | 25.1%
77 | Cn1cccc1C(=O)N1CCN(Cc2cccnc2)c2ncccc2C1 | -8.24%
78 | c1cnn(CCCO[C@@H]2CC[C@H]3[C@H]2OCCN3CC2CCOCC2)c1 | -5.34%
79 | O=C(N1CCCO1)[C@@]12CCO[C@@H]1CCN(Cc1ccccn1)C2 | 2.18%
80 | O=C(c1ccnnc1)N1CCN(Cc2cccnc2)c2ncccc2C1 | -8.62%
81 | Cc1nc(CN2C(=O)CCC23CCN(Cc2ccoc2)CC3)cs1 | -4.67%
82 | CN(C)CCOCc1nnc2n1CCN(Cc1cccs1)CC2 | 1.78%
83 | COc1cc(N2C[C@@H]3COC[C@]3(COc3ccccn3)C2)ncn1 | -11.5%
84 | Cc1cccc(CN2C[C@@H]3COC[C@H](NS(C)(=O)=O)[C@@H]3C2)n1 | -15.5%
85 | O=C(NCC1CC1)C1CN(c2ncccn2)Cc2ccnn2C1 (stereo not given) | -14.5%
86 | O=S1(=O)CCN(Cc2cccnc2)[C@H]2CCN(c3ncccn3)CC[C@H]21 | 19.6%
87 | c1cncc(C2COC3(CCN(CC4CC4)CC3)C2)c1 (stereo not given) | -0.218%
88 | CN(C)CC(=O)N1CCOC2(CCCN(c3ncccc3F)C2)C1 (stereo not given) | 4.23%
89 | CN1CC(=O)N(c2cccnc2)CC12CCN(C(=O)c1cccnc1)C2 (stereo not given) | 2.34%
90 | CCN1CCn2c(C)cnc2C12CCN(C(=O)CC(C)C)CC2 | -2.3%
91 | Cn1cc(N2C(=O)CC[C@@H]3[C@H]2CCN3Cc2ccncc2)cn1 | 6.03%
92 | Cc1cnc(N2CCCC3(CCN(Cc4csc(C)n4)C3=O)C2)nc1 (stereo not given) | 3.6%
93 | O=C(c1ccsc1)N1CCOC2(CCN(Cc3cccnc3)CC2)C1 | -1.16%
94 | Cc1nc(CN2CCC3(CCCN(Cc4cccnc4)C3)C2=O)cs1 (stereo not given) | 26.7%
95 | CNC(=O)CN1CCOCC2(CCCN(Cc3cccnc3)C2)C1 (stereo not given) | 4.24%
96 | CN1CCN(C[C@@H]2OC[C@H]3CN(Cc4ccsc4)CC[C@H]32)CC1 | -4.59%
97 | CC1c2ncc(CN3CCN(C)CC3)n2CCN1CC1CC1 (stereo not given) | -11.9%
98 | CN(Cc1cccnc1)[C@@H]1CN(Cc2cnn(C)c2)[C@@H]2CCCO[C@H]12 | -6.78%
99 | CN(Cc1cccnc1)[C@@H]1CN(Cc2nccn2C)[C@@H]2CCCO[C@H]12 | -4.78%
100 | CC1c2ncc(CN3CCN(C)CC3)n2CCN1Cc1cccnc1 (stereo not given) | -15.8%
